# Data as given in publication PMC4585333, “Novel Regulator of Acylated Ghrelin, CF801, Reduces Weight Gain, Rebound Feeding after a Fast, and Adiposity in Mice” (Frontiers in Endocrinology, 2015).
# “Also recorded” adds a separate entry of the source.
# Key:
# [1] = target: T1, mouse GOAT (mGOAT) (Mus musculus, UniProt P0C7A3); assay: Fluorescence-based GOAT activity assay, mouse GOAT; format: biochemical; details: concentrations up to 10 μM; Sf9 membranes, 1.5 μM GSSFLCAcDan, 500 μM octanoyl-CoA, 30 min pre-incubation, 1 h room temperature, pH 7.0, HPLC fluorescence, triplicate; F(3,8) = 0.139, p > 0.05
# T1 construct: made in house; host or cells: Sf9 insect cells (membrane fraction)
# T1 sequence (P0C7A3 1-435): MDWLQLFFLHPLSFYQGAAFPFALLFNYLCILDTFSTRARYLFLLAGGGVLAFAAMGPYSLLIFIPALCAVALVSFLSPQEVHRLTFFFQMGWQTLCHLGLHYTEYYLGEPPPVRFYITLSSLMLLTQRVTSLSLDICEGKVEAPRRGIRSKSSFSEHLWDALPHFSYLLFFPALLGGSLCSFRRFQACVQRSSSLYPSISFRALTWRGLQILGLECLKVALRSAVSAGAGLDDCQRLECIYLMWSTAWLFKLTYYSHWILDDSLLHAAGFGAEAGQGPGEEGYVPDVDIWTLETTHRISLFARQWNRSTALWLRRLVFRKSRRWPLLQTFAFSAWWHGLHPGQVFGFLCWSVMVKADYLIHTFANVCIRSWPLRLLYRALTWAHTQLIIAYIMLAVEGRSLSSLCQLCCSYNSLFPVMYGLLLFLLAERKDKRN
# From the text: (§1) The effects of CF801 on GOAT activity were examined using a previously validated fluorescence-based assay, and in comparison with octanoyl-(Dap3)-ghrelin (1–5)–NH2, a well characterized GOAT inhibitor ([56], [63]). In this assay, membrane fractions from Sf9 insect cells were transfected to express either human (hGOAT) or mouse GOAT (mGOAT). Membranes fractions were thawed on ice and passed through an 18-gage needle 10 times enriched using a previously described method ([63]). […] Assays were analyzed by reverse phase HPLC with fluorescence detection. […] The trials were run in triplicate, with the % activity calculated as the integrated fluorescence intensity of the octanoylated product in the CF801 or octanoyl-(Dap3)-ghrelin (1–5)–NH2 run normalized by the same quantity for the vehicle-only reaction. […]
# (§2) Figure 3 Percent activity of human GOAT (A) and mouse GOAT (B) (obtained from membrane fractions from Sf9 cells expressing hGOAT and mGOAT, resepectively) when exposed to CF801 and octanoyl-(Dap3)-ghrelin (1–5)–NH2 using a fluorescence-based microsomal assay. GSSFLCAcDan was used as an acylation target with fluorescence measured by reverse phase HPLC with fluorescence detection. […] All values are expressed as mean ± SEM. ***p < 0.001 compared to vehicle control.
# [2] = target: T2, human GOAT (hGOAT) (Homo sapiens, UniProt Q96T53); assay: Fluorescence-based GOAT activity assay, human GOAT; format: biochemical; details: concentrations up to 10 μM; Sf9 membranes, 1.5 μM GSSFLCAcDan, 500 μM octanoyl-CoA, 30 min pre-incubation, 1 h room temperature, pH 7.0, HPLC fluorescence, triplicate; F(3,8) = 1.251, p > 0.05
# T2 construct: made in house; host or cells: Sf9 insect cells (membrane fraction)
# T2 sequence (Q96T53 1-435): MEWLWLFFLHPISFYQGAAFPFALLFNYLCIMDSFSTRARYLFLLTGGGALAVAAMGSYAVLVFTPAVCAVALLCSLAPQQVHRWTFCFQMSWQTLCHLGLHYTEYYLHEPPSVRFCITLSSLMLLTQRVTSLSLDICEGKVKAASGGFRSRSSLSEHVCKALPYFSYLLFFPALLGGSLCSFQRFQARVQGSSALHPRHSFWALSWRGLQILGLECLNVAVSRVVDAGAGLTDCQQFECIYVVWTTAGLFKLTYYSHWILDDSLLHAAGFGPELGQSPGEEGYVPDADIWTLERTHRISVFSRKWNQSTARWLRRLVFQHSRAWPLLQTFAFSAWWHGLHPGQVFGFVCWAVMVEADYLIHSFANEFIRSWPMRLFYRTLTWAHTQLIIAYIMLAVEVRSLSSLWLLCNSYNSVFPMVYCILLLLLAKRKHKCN
# From the text: as §1, §2
sequence,measurement,setting,value
GSAFLSPEHQRK KRRQRRR-NH2 [CF801],mGOAT activity with CF801,[1],no inhibition was seen; also recorded: no effect
same,hGOAT activity with CF801,[2],no inhibition was seen; also recorded: no effect
